The structures appear in SMILES notation.

The first assay deals with Kuramochi. Put plainly: drug sensitivity score (DSS) from 5-point dose-response viability curve (DSS (area-under-curve based score)); higher = more sensitive (stronger growth inhibition or killing); extreme values may be limits of the assay. Conditions: exposure time: 72 h; concentration range: 5 concentrations over 10,000-fold range. The procedure, abridged: (§1)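 Ovarian cancer and normal ovarian cell lines were tested in 384-well plates, with drugs dispensed acoustically (Echo 550) in DMSO or water at five concentrations covering a 10,000-fold range. After 1,500 cells per well were added, plates were incubated for 3 days at 37°C and 5% CO2, and viability was read by CellTiter-Glo luminescence on a PHERAstar FS. Breeze software gave a drug sensitivity score for each cell line and drug, where a higher score means greater sensitivity. A value of zero means no response.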
`C[C@H]1CNCCCN1S(=O)(=O)c1cccc2cncc(F)c12` [Ripasudil] displayed a drug sensitivity score of 0.
As to `C=CC(=O)Nc1cccc(Nc2nc(Nc3ccc(N4CCN(C(C)=O)CC4)cc3OC)ncc2C(F)(F)F)c1` [Rociletinib], the drug sensitivity score is 3.6.
Still for that read-out and setting: with `O=C(CCCCCCNC(=O)c1cnc(N(c2ccccc2)c2ccccc2)nc1)NO` [Rocilinostat] the figure was 3.3; with `C/C=C1\NC(=O)[C@H]2CSSCC/C=C/[C@H](CC(=O)N[C@H](C(C)C)C(=O)N2)OC(=O)[C@H](C(C)C)NC1=O` [Romidepsin], 27.8; with `Cc1nc(C(=O)NCC(=O)O)c(O)c2ccc(Oc3ccccc3)cc12` [Roxadustat], 0.4.
The molecule `CN(C)C[C@@H]1CCn2cc(c3ccccc32)C2=C(C(=O)NC2=O)c2cn(c3ccccc23)CCO1` [Ruboxistaurin] gave a drug sensitivity score of 7.2.
On the same count and under the same terms, next, `CNCc1ccc(-c2[nH]c3cc(F)cc4c3c2CCNC4=O)cc1` [Rucaparib]: 0.3.
In turn, `N#CC[C@H](C1CCCC1)n1cc(-c2ncnc3[nH]ccc23)cn1` [Ruxolitinib] yielded a drug sensitivity score of 0.
For the molecule `CC(C)N(CCCNC(=O)Nc1ccc(C(C)(C)C)cc1)C[C@H]1O[C@@H](n2cc(Br)c3c(N)ncnc32)[C@H](O)[C@@H]1O` [SGC0946], the drug sensitivity score turned out to be 0.
The molecule `COc1ccc(CCc2nc3cc(-c4c(C)noc4C)ccc3n2C[C@H](C)N2CCOCC2)cc1Cl` [SGC-CBP30] showed a drug sensitivity score of 6.6.
Still for that read-out and setting: next, `CN1CCC(CNc2ccc3ncc(-c4cccc(OC(F)(F)F)c4)n3n2)CC1` [SGI-1776]: 5.1; `CN(CC(=O)N(Cc1ccc(C2CCCCC2)cc1)c1ccc(C(=O)O)cc1)S(=O)(=O)c1c(F)c(F)c(F)c(F)c1F` [SH-4-54]: 6.6; `CCc1c2c(nc3ccc(O)cc13)-c1cc3c(c(=O)n1C2)COC(=O)[C@]3(O)CC` [SN-38]: 14.6.
Molecule `CC(C)(C)c1cnc(CSc2cnc(NC(=O)C3CCNCC3)s2)o1` [SNS-032] gave a drug sensitivity score of 15.8.
Still for that read-out and setting: with `Cc1cc2c(C(=O)NC[C@H](C)c3ccccc3)c(O)c(O)cc2c(O)c1-c1c(C)cc2c(C(=O)NC[C@H](C)c3ccccc3)c(O)c(O)cc2c1O` [Sabutoclax] the figure was 6.7.

In the next assay the test system is OVCAR5. The assay is described as above. Conditions: exposure time: 72 h; concentration range: 5 concentrations over 10,000-fold range. The procedure, abridged: as §1
`C[C@H]1CNCCCN1S(=O)(=O)c1cccc2cncc(F)c12` [Ripasudil] returned a drug sensitivity score of 0.
On the same count and under the same terms, with `C=CC(=O)Nc1cccc(Nc2nc(Nc3ccc(N4CCN(C(C)=O)CC4)cc3OC)ncc2C(F)(F)F)c1` [Rociletinib] the figure was 7.5.
`O=C(CCCCCCNC(=O)c1cnc(N(c2ccccc2)c2ccccc2)nc1)NO` [Rocilinostat] came in with a drug sensitivity score of 6.9.
Regarding `C/C=C1\NC(=O)[C@H]2CSSCC/C=C/[C@H](CC(=O)N[C@H](C(C)C)C(=O)N2)OC(=O)[C@H](C(C)C)NC1=O` [Romidepsin], the drug sensitivity score is 33.3.
On the same count and under the same terms, with `Cc1nc(C(=O)NCC(=O)O)c(O)c2ccc(Oc3ccccc3)cc12` [Roxadustat] the figure was 0; with `CN(C)C[C@@H]1CCn2cc(c3ccccc32)C2=C(C(=O)NC2=O)c2cn(c3ccccc23)CCO1` [Ruboxistaurin], 5.6; with `CNCc1ccc(-c2[nH]c3cc(F)cc4c3c2CCNC4=O)cc1` [Rucaparib], 1.2.
On the same count and under the same terms, next, `N#CC[C@H](C1CCCC1)n1cc(-c2ncnc3[nH]ccc23)cn1` [Ruxolitinib]: 0; `CC(C)N(CCCNC(=O)Nc1ccc(C(C)(C)C)cc1)C[C@H]1O[C@@H](n2cc(Br)c3c(N)ncnc32)[C@H](O)[C@@H]1O` [SGC0946]: 1.7; `COc1ccc(CCc2nc3cc(-c4c(C)noc4C)ccc3n2C[C@H](C)N2CCOCC2)cc1Cl` [SGC-CBP30]: 2.9.
The same measure, in the same setting: with `CN1CCC(CNc2ccc3ncc(-c4cccc(OC(F)(F)F)c4)n3n2)CC1` [SGI-1776] the figure was 6.9.
In turn, `CN(CC(=O)N(Cc1ccc(C2CCCCC2)cc1)c1ccc(C(=O)O)cc1)S(=O)(=O)c1c(F)c(F)c(F)c(F)c1F` [SH-4-54] registered a drug sensitivity score of 5.2.
Still for that read-out and setting: next, `CCc1c2c(nc3ccc(O)cc13)-c1cc3c(c(=O)n1C2)COC(=O)[C@]3(O)CC` [SN-38]: 24; `CC(C)(C)c1cnc(CSc2cnc(NC(=O)C3CCNCC3)s2)o1` [SNS-032]: 18.5; `Cc1cc2c(C(=O)NC[C@H](C)c3ccccc3)c(O)c(O)cc2c(O)c1-c1c(C)cc2c(C(=O)NC[C@H](C)c3ccccc3)c(O)c(O)cc2c1O` [Sabutoclax]: 10.8.

The next assay relates to Ovsaho. The description is as above. The conditions noted are these: exposure time: 72 h; concentration range: 5 concentrations over 10,000-fold range. In outline:
as §1
In the case of `C[C@H]1CNCCCN1S(=O)(=O)c1cccc2cncc(F)c12` [Ripasudil], the drug sensitivity score came out at 0.
`C=CC(=O)Nc1cccc(Nc2nc(Nc3ccc(N4CCN(C(C)=O)CC4)cc3OC)ncc2C(F)(F)F)c1` [Rociletinib] came in with a drug sensitivity score of 6.9.
With `O=C(CCCCCCNC(=O)c1cnc(N(c2ccccc2)c2ccccc2)nc1)NO` [Rocilinostat], the drug sensitivity score worked out at 1.9.
Still for that read-out and setting: with `C/C=C1\NC(=O)[C@H]2CSSCC/C=C/[C@H](CC(=O)N[C@H](C(C)C)C(=O)N2)OC(=O)[C@H](C(C)C)NC1=O` [Romidepsin] the figure was 25.9; with `Cc1nc(C(=O)NCC(=O)O)c(O)c2ccc(Oc3ccccc3)cc12` [Roxadustat], 0.
On the same count and under the same terms, next, `CN(C)C[C@@H]1CCn2cc(c3ccccc32)C2=C(C(=O)NC2=O)c2cn(c3ccccc23)CCO1` [Ruboxistaurin]: 9.2; `CNCc1ccc(-c2[nH]c3cc(F)cc4c3c2CCNC4=O)cc1` [Rucaparib]: 0.4.
The molecule `N#CC[C@H](C1CCCC1)n1cc(-c2ncnc3[nH]ccc23)cn1` [Ruxolitinib] showed a drug sensitivity score of 0.
Still for that read-out and setting: next, `CC(C)N(CCCNC(=O)Nc1ccc(C(C)(C)C)cc1)C[C@H]1O[C@@H](n2cc(Br)c3c(N)ncnc32)[C@H](O)[C@@H]1O` [SGC0946]: 0.1; `COc1ccc(CCc2nc3cc(-c4c(C)noc4C)ccc3n2C[C@H](C)N2CCOCC2)cc1Cl` [SGC-CBP30]: 6.6; `CN1CCC(CNc2ccc3ncc(-c4cccc(OC(F)(F)F)c4)n3n2)CC1` [SGI-1776]: 7.7.
As to `CN(CC(=O)N(Cc1ccc(C2CCCCC2)cc1)c1ccc(C(=O)O)cc1)S(=O)(=O)c1c(F)c(F)c(F)c(F)c1F` [SH-4-54], the drug sensitivity score is 5.7.
With `CCc1c2c(nc3ccc(O)cc13)-c1cc3c(c(=O)n1C2)COC(=O)[C@]3(O)CC` [SN-38], the drug sensitivity score is 21.2.
The molecule `CC(C)(C)c1cnc(CSc2cnc(NC(=O)C3CCNCC3)s2)o1` [SNS-032] displayed a drug sensitivity score of 18.9.
`Cc1cc2c(C(=O)NC[C@H](C)c3ccccc3)c(O)c(O)cc2c(O)c1-c1c(C)cc2c(C(=O)NC[C@H](C)c3ccccc3)c(O)c(O)cc2c1O` [Sabutoclax] had a drug sensitivity score of 8.2.

The values are drawn from the supplement of paper PMC11616607.
